Measured values published in publication PMC2749987 (European journal of pharmacology, 2009).
Where two headings read alike, the source gives them in different places.

How the values were obtained:
human 5-HT2B receptor [1] = molecular target: T1, human 5-HT2B receptor (Homo sapiens, UniProt P41595); assay type: binding; conditions: for nH (Hill slope), 5-HT2B binding: competition binding
human 5-HT2C receptor [2] = molecular target: T2, human 5-HT2C receptor (Homo sapiens, UniProt P28335); assay type: binding; conditions: for nH (Hill slope), 5-HT2C binding: competition binding
T2 sequence (P28335 33-458): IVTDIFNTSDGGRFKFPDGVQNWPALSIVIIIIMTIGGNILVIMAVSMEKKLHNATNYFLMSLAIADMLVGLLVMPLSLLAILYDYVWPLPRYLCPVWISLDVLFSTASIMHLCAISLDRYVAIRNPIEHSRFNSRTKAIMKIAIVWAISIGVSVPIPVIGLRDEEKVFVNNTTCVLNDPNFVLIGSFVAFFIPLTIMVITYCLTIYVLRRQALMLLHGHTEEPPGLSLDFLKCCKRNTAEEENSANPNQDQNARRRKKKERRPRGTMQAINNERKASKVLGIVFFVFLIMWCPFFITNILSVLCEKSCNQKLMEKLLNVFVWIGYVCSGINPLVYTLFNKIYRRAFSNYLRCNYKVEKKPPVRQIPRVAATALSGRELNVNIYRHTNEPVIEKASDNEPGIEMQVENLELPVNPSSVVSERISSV

human 5-HT2A receptor [3] = molecular target: T3, human 5-HT2A receptor (Homo sapiens, UniProt P28223); assay type: binding; conditions: for nH (Hill slope), 5-HT2A binding: competition binding
T3 sequence (P28223 whole entry): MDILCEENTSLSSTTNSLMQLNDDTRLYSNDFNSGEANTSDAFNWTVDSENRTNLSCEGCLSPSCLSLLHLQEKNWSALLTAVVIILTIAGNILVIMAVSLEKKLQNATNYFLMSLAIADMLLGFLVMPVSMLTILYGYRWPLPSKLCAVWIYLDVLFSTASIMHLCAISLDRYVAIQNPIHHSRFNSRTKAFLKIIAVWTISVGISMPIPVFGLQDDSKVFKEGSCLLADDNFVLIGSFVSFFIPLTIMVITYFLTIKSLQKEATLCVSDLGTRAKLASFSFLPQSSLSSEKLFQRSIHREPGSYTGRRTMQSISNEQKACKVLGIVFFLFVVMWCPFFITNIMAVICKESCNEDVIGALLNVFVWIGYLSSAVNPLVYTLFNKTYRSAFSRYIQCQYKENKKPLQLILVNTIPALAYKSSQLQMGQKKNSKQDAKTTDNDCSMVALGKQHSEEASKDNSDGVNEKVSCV

human 5-HT2B receptor [4] = molecular target: T1, human 5-HT2B receptor
human 5-HT2C receptor [5] = molecular target: T2, human 5-HT2C receptor; assay type: cell-based
human 5-HT2A receptor [6] = molecular target: T3, human 5-HT2A receptor; assay type: cell-based
mice = conditions: intraperitoneal single-dose, ref Rowland et al., 2008, cited from earlier work
5-HT2A = conditions: ref Knight et al., 2004; cited from earlier work
rats = conditions: oral single-dose, ref Thomsen et al., 2008, cited from earlier work
5-HT2B receptors [7] = conditions: read-out: affinity at 5-HT2B receptors Ki, ref Jensen, 2006, Smith et al., Thomsen et al., 2008; cited from earlier work
5-HT2B receptors [8] = conditions: ref Jensen, 2006, Smith et al., Thomsen et al., 2008; cited from earlier work
5-HT2C receptors = conditions: ref Jensen, 2006, Smith et al., Thomsen et al., 2008; cited from earlier work
5-HT2A receptors [9] = conditions: ref Jensen, 2006, Smith et al., Thomsen et al., 2008; cited from earlier work
5-HT2A receptors [10] = conditions: read-out: affinity at 5-HT2A receptors Ki, ref Jensen, 2006, Smith et al., Thomsen et al., 2008; cited from earlier work
[11] = read-out: 5-HT2B Ki ± SEM, competition vs 5.0 nM [3H]-mesulergine
[12] = read-out: 5-HT2A Ki ± SEM, competition vs 1.0 nM [3H]-ketanserin

T1 sequence (P41595 whole entry): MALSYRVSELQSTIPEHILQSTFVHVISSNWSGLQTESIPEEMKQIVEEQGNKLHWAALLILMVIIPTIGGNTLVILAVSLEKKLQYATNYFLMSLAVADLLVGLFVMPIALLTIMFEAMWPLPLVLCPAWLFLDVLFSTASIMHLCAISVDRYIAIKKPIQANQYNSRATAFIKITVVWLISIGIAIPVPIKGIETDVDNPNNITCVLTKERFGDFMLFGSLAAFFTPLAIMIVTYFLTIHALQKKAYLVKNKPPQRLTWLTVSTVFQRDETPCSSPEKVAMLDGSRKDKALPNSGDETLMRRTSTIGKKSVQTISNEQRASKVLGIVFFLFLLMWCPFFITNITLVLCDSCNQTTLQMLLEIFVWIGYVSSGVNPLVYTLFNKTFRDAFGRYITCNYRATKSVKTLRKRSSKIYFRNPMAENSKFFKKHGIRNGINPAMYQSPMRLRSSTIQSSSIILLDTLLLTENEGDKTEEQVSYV

CN(C)[C@H]1Cc2ccccc2[C@@H](c2ccccc2)C1 [(+)-cis-PAT]
nH (Hill slope), 5-HT2B binding (human 5-HT2B receptor [1]): ~1.0 | Ki (human 5-HT2B receptor [1]; [11]): ~5000 nM | nH (Hill slope), 5-HT2C binding (human 5-HT2C receptor [2]): 0.9 ± 0.1 | nH (Hill slope), 5-HT2A binding (human 5-HT2A receptor [3]): 0.9 ± 0.2 | Ki (human 5-HT2A receptor [3]; [12]): 780 ± 2 nM

CN(C)[C@@H]1Cc2ccccc2[C@@H](c2ccccc2)C1 (relative stereo) [(−)-trans-PAT, (1R,3S)-(−)-trans-1-phenyl-3-dimethylamino-1,2,3,4-tetrahydronaphthalene]
nH (Hill slope), 5-HT2B binding (human 5-HT2B receptor [1]): 1.0 ± 0.001 | Ki (human 5-HT2B receptor [1]; [11]): 1200 nM | Ki (human 5-HT2B receptor [1]; read-out: 5-HT2B receptor affinity Ki, as quoted in text from Table): ~1200 nM | nH, inverse agonism at 5-HT2B receptors (human 5-HT2B receptor [4]): 0.87 ± 0.23 | stimulation of PLC/[3H]-IP formation in cells expressing 5-HT2B receptors (human 5-HT2B receptor [4]): does not stimulate | (maximal) inhibition of constitutive signaling at 5-HT2B receptors (human 5-HT2B receptor [4]; 10 μM): 35.3 ± 2.00% | pA2, 5-HT2B receptors (human 5-HT2B receptor [4]; vs serotonin): 5.8 | potency (EC50) to activate 5-HT2C receptors greater than 5-HT2C affinity (Ki) (human 5-HT2C receptor [5]): about 2 times | Emax, 5-HT2C activation (human 5-HT2C receptor [5]; CHO cells): 464 ± 10.8 % basal control activity | nH, 5-HT2C activation (human 5-HT2C receptor [5]; CHO cells): 0.75 ± 0.13 | nH, inverse agonism at 5-HT2A receptors (human 5-HT2A receptor [6]): 0.85 ± 0.01 | stimulation of PLC/[3H]-IP formation in cells expressing 5-HT2A receptors (human 5-HT2A receptor [6]): does not stimulate | (maximal) inhibition of constitutive signaling at 5-HT2A receptors (human 5-HT2A receptor [6]; 10 μM): 57.6 ± 5.66% | pA2, 5-HT2A receptors (human 5-HT2A receptor [6]; vs serotonin): 6.3 | difference in affinity at 5-HT2A and 5-HT2C receptors (human 5-HT2C receptor [2]): 10 times | nH (Hill slope), 5-HT2C binding (human 5-HT2C receptor [2]): 0.9 ± 0.1 | nH (Hill slope), 5-HT2A binding (human 5-HT2A receptor [3]): 1.1 ± 0.1 | Ki (human 5-HT2A receptor [3]; [12]): 410 ± 38 nM | Ki (human 5-HT2A receptor [3]; read-out: 5-HT2A receptor affinity Ki, as quoted in text from Table): ~400 nM | maximal reduction of food intake (mice; at 10 mg/kg): about 75% | ED50, reduction of food intake (mice): 4.2 mg/kg

CN(C)[C@@H]1Cc2ccccc2[C@H](c2ccccc2)C1 [(−)-cis-PAT]
nH (Hill slope), 5-HT2B binding (human 5-HT2B receptor [1]): ~1.0 | Ki (human 5-HT2B receptor [1]; [11]): ~10000 nM | nH (Hill slope), 5-HT2C binding (human 5-HT2C receptor [2]): 0.90 ± 0.04 | nH (Hill slope), 5-HT2A binding (human 5-HT2A receptor [3]): 1.0 ± 0.1 | Ki (human 5-HT2A receptor [3]; [12]): 1500 ± 2 nM

COc1cccc([C@H](O)C2CCN(CCc3ccc(F)cc3)CC2)c1OC [M100907]
5-HT2A selectivity over 5-HT2B receptors (5-HT2A): 500 times | 5-HT2A selectivity over 5-HT2C receptors (5-HT2A): 15 times

[3H]C([3H])(N1CCC(C(=O)c2ccc(F)cc2)CC1)C([3H])([3H])n1c(=O)[nH]c2ccccc2c1=O [[^3H]-Ketanserin, reference compound]
Bmax, 5-HT2A receptors (human 5-HT2A receptor [3]; saturation binding): 1.73 ± 0.11 pmol/mg protein

C[C@H]1CNCCc2ccc(Cl)cc21 [lorcaserin]
maximal reduction of food intake (rats; at 24 mg/kg): about 60% | ED50, reduction of food intake (rats): 18 mg/kg | Ki (5-HT2B receptors [7]): ~174 nM | efficacy, activation of 5-HT2B receptors (5-HT2B receptors [8]): 100% | affinity for 5-HT2C receptors higher than at 5-HT2A receptors (5-HT2C receptors): about 7.5 times | affinity for human 5-HT2C over 5-HT2B receptors (5-HT2C receptors): about 12 times | efficacy, activation of 5-HT2A receptors (5-HT2A receptors [9]): 75% | Ki (5-HT2A receptors [10]): ~112 nM
